These compounds were tested against T1, human recombinant 15-PGDH (Homo sapiens, UniProt P15428) (assay: Inhibition of recombinant 15-PGDH enzymatic activity (NADH quantification after addition of PGE2 and NAD+)). Settings: not given.
T1 sequence (P15428 1-266): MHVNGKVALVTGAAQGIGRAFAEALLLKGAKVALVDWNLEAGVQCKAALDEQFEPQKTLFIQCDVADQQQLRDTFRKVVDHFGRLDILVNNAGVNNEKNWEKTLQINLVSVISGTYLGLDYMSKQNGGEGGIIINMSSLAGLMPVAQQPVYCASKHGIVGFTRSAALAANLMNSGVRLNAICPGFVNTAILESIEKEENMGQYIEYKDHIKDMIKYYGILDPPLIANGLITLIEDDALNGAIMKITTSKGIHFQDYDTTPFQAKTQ
Assay type: biochemical
Experimental: The compound dose-response of its inhibition of 15-PGDH activity was determined in human recombinant 15-PGDH enzymatical assays. These assays measured 15-PGDH enzymatic activity by quantifying the amount of NADH produced during a 60-minute reaction initiated by the addition of PGE2 and NAD+. Under the conditions of these experiments, the increase of NADH signal upon oxidation of PGE2 and reduction of NAD+ was linearly proportional to 15-PGDH enzymatic activity. The recombinant human, mouse, rat and dog 15-PGDH enzymatic assays were performed in a 25 μL volume of reaction buffer containing 50 mM Tris, pH 7.5, 0.01% Tween-20 and 100 μM DTT in a 384-well microtiter plate. In concentration-response experiments with tested compounds, 22 concentrations from 2-fold serial dilutions in DMSO were pre-incubated with 15-PGDH for 15 minutes at room temperature. Then, PGE2 and ß-NAD+ were added to initiate the 15-PGDH reaction. After 60 minutes at room temperature, the reaction was quenched and NADH signal was measured using a microtiter plate reader.
The following data (Table 11-1) provides the IC50 of each compound for inhibiting enzymatic activity of recombinant 15-PGDH in the assay described above.

| IC50 | Compound |
| --- | --- |
| 0.387 nM | Cn1cc2cc(-c3cc(C4CCC4)c4c(N)c(C(=O)N5CCC(F)(F)CC5)sc4n3)cnc2n1 [Compound B4, (3-amino-4-cyclobutyl-6-(2-methyl-2H-pyrazolo[3,4-b]pyridin-5-yl)thieno[2,3-b]pyridin-2-yl)(4,4-difluoro-1-piperidinyl)methanone] |

Same assay, conditions: recombinant 15-PGDH; 15 min pre-incubation, 60-minute reaction, room temperature, pH 7.5; PGE2 and NAD+; read-out: PGDH-Lumi IC50

| IC50 | Compound |
| --- | --- |
| 3.11 nM | C[C@@H]1COCCN1C(=O)c1cc2c(C3CC3)cc(-c3cnc4nn(C)cc4c3)nc2s1 (single isomer, unassigned) [Compound B17R] |
| 1.51 nM | CC1CC(F)(F)CCN1C(=O)c1cc2ccc(-c3cnc4nn(C)cc4c3)nc2s1 (single isomer, unassigned) [Compound B27R] |
| 1.24 nM | C[C@H]1CC(F)(F)CCN1C(=O)c1cc2ccc(-c3cnc4nn(C)cc4c3)nc2s1 (single isomer, unassigned) [Compound B27S] |
| 1.75 nM | Cn1cc2cc(-c3ccc4cc(C(=O)N5C[C@H]6CC[C@@H]5CO6)sc4n3)cnc2n1 (stereo in doubt) [Compound B52, (6-(2-methyl-2H-pyrazolo[3,4-b]pyridin-5-yl)thieno[2,3-b]pyridin-2-yl)(2-oxa-5-azabicyclo[2.2.2]octan-5-yl)methanone] |
| 273 nM | Cc1c(C(=O)N2CCOC[C@H]2C)sc2cc(-c3cnc4nn(C)cc4c3)ccc12 [Compound A1R, (3-methyl-6-(2-methyl-2H-pyrazolo[3,4-b]pyridin-5-yl)-1-benzothiophen-2-yl)((3R)-3-methyl-4-morpholinyl)methanone] |
| 217 nM | Cc1c(C(=O)N2CCOC[C@@H]2C)sc2cc(-c3cnc4nn(C)cc4c3)ccc12 [Compound A1S, (3-methyl-6-(2-methyl-2H-pyrazolo[3,4-b]pyridin-5-yl)-1-benzothiophen-2-yl)((3S)-3-methyl-4-morpholinyl)methanone] |
| 163 nM | Cc1c(C(=O)N2CCOCC2)sc2cc(-c3cnc4nn(C)cc4c3)ccc12 [Compound A2, (3-methyl-6-(2-methyl-2H-pyrazolo[3,4-b]pyridin-5-yl)-1-benzothiophen-2-yl)(4-morpholinyl)methanone] |
| 11.7 nM | Cc1c(C(=O)N2CCC(F)(F)CC2)sc2cc(-c3cnc4nn(C)cc4c3)ccc12 [Compound A3, (4,4-difluoro-1-piperidinyl)(3-methyl-6-(2-methyl-2H-pyrazolo[3,4-b]pyridin-5-yl)-1-benzothiophen-2-yl)methanone] |
| 225 nM | CO[C@@H]1CCN(C(=O)c2sc3cc(-c4cnc5nn(C)cc5c4)ccc3c2C)C1 [Compound A4R, ((3R)-3-methoxy-1-pyrrolidinyl)(3-methyl-6-(2-methyl-2H-pyrazolo[3,4-b]pyridin-5-yl)-1-benzothiophen-2-yl)methanone] |
| 19.5 nM | CO[C@H]1CCN(C(=O)c2sc3cc(-c4cnc5nn(C)cc5c4)ccc3c2C)C1 [Compound A4S, ((3S)-3-methoxy-1-pyrrolidinyl)(3-methyl-6-(2-methyl-2H-pyrazolo[3,4-b]pyridin-5-yl)-1-benzothiophen-2-yl)methanone] |
| 87.8 nM | COCCN(C)C(=O)c1sc2cc(-c3cnc4nn(C)cc4c3)ccc2c1C [Compound A5, N-(2-methoxyethyl)-N,3-dimethyl-6-(2-methyl-2H-pyrazolo[3,4-b]pyridin-5-yl)-1-benzothiophene-2-carboxamide] |
| 185 nM | Cc1c(C(=O)N2CCOC(C)(C)C2)sc2cc(-c3cnc4nn(C)cc4c3)ccc12 [Compound A6, (2,2-dimethyl-4-morpholinyl)(3-methyl-6-(2-methyl-2H-pyrazolo[3,4-b]pyridin-5-yl)-1-benzothiophen-2-yl)methanone] |
| 49.5 nM | CO[C@@H]1CCCN(C(=O)c2sc3cc(-c4cnc5nn(C)cc5c4)ccc3c2C)C1 [Compound A7R, ((3R)-3-methoxy-1-piperidinyl)(3-methyl-6-(2-methyl-2H-pyrazolo[3,4-b]pyridin-5-yl)-1-benzothiophen-2-yl)methanone] |
| 66.4 nM | CO[C@H]1CCCN(C(=O)c2sc3cc(-c4cnc5nn(C)cc5c4)ccc3c2C)C1 [Compound A7S, ((3S)-3-methoxy-1-piperidinyl)(3-methyl-6-(2-methyl-2H-pyrazolo[3,4-b]pyridin-5-yl)-1-benzothiophen-2-yl)methanone] |
| 4500 nM | Cc1c(C(=O)N2CCOCC2)sc2cc(-c3cncnc3)ccc12 [Compound A8, (3-methyl-6-(5-pyrimidinyl)-1-benzothiophen-2-yl)(4-morpholinyl)methanone] |
| 4960 nM | Cc1c(C(=O)N2CCOCC2)sc2cc(-c3ccc(=O)n(C)c3)ccc12 [Compound A9, 1-methyl-5-(3-methyl-2-(4-morpholinylcarbonyl)-1-benzothiophen-6-yl)-2(1H)-pyridinone] |

| IC50 | Compound |
| --- | --- |
| 1610 nM | Cc1c(C(=O)N2CCOCC2)sc2cc(-c3cnc(NCCO)nc3)ccc12 [Compound A10] |
| 851 nM | Cc1c(C(=O)N2CCOCC2)sc2cc(-c3ccc4nn(C)cc4c3)ccc12 [Compound A11, (3-methyl-6-(2-methyl-2H-indazol-5-yl)-1-benzothiophen-2-yl)(4-morpholinyl)methanone] |
| 0.711 nM | Cn1cc2cc(-c3cc(C4CCC4)c4c(N)c(C(=O)N5CCOCC5)sc4n3)cnc2n1 [Compound B3, (3-amino-4-cyclobutyl-6-(2-methyl-2H-pyrazolo[3,4-b]pyridin-5-yl)thieno[2,3-b]pyridin-2-yl)(4-morpholinyl)methanone] |
| 0.255 nM | Cn1cc2cc(-c3cc(C4CCC4)c4c(N)c(C(=O)N5CCCCC5)sc4n3)cnc2n1 [Compound B5, (3-amino-4-cyclobutyl-6-(2-methyl-2H-pyrazolo[3,4-b]pyridin-5-yl)thieno[2,3-b]pyridin-2-yl)(1-piperidinyl)methanone] |
| 0.816 nM | C[C@@H]1COCCN1C(=O)c1sc2nc(-c3cnc4nn(C)cc4c3)cc(C3CCC3)c2c1N [Compound B6R, (3-amino-4-cyclobutyl-6-(2-methyl-2H-pyrazolo[3,4-b]pyridin-5-yl)thieno[2,3-b]pyridin-2-yl)((3R)-3-methyl-4-morpholinyl)methanone] |
| 0.554 nM | C[C@H]1COCCN1C(=O)c1sc2nc(-c3cnc4nn(C)cc4c3)cc(C3CCC3)c2c1N [Compound B6S, (3-amino-4-cyclobutyl-6-(2-methyl-2H-pyrazolo[3,4-b]pyridin-5-yl)thieno[2,3-b]pyridin-2-yl)((3S)-3-methyl-4-morpholinyl)methanone] |
| > 100000 nM | CC(C)c1cc[n+]([O-])c2sc(C(=O)N3CCCCC3)cc12 [Compound B7, (7-oxido-4-(2-propanyl)thieno[2,3-b]pyridin-2-yl)(1-piperidinyl)methanone] |
| 5.55 nM | Cn1cc2cc(-c3ccc4cc(C(=O)N5CCOCC5)sc4n3)cnc2n1 [Compound B8, (6-(2-methyl-2H-pyrazolo[3,4-b]pyridin-5-yl)thieno[2,3-b]pyridin-2-yl)(4-morpholinyl)methanone] |
| 6.39 nM | C[C@@H]1COCCN1C(=O)c1cc2ccc(-c3cnc4nn(C)cc4c3)nc2s1 [Compound B9R, ((3R)-3-methyl-4-morpholinyl)(6-(2-methyl-2H-pyrazolo[3,4-b]pyridin-5-yl)thieno[2,3-b]pyridin-2-yl)methanone] |
| 5.05 nM | C[C@H]1COCCN1C(=O)c1cc2ccc(-c3cnc4nn(C)cc4c3)nc2s1 [Compound B9S, ((3S)-3-methyl-4-morpholinyl)(6-(2-methyl-2H-pyrazolo[3,4-b]pyridin-5-yl)thieno[2,3-b]pyridin-2-yl)methanone] |
| 0.917 nM | Cn1cc2cc(-c3cc(C4CC4)c4cc(C(=O)N5CCOCC5)sc4n3)cnc2n1 [Compound B10, (4-cyclopropyl-6-(2-methyl-2H-pyrazolo[3,4-b]pyridin-5-yl)thieno[2,3-b]pyridin-2-yl)(4-morpholinyl)methanone] |
| 0.317 nM | Cn1cc2cc(-c3cc(C4CC4)c4cc(C(=O)N5CCCC(F)(F)C5)sc4n3)cnc2n1 [Compound B11, (4-cyclopropyl-6-(2-methyl-2H-pyrazolo[3,4-b]pyridin-5-yl)thieno[2,3-b]pyridin-2-yl)(3,3-difluoro-1-piperidinyl)methanone] |
| 0.704 nM | COCCN(C)C(=O)c1cc2c(C3CC3)cc(-c3cnc4nn(C)cc4c3)nc2s1 [Compound B12, 4-cyclopropyl-N-(2-methoxyethyl)-N-methyl-6-(2-methyl-2H-pyrazolo[3,4-b]pyridin-5-yl)thieno[2,3-b]pyridine-2-carboxamide] |
| 1.26 nM | Cn1cc2cc(-c3cc(-c4ccnn4C)c4cc(C(=O)N5CCOCC5)sc4n3)cnc2n1 [Compound B13, (6-(2-methyl-2H-pyrazolo[3,4-b]pyridin-5-yl)-4-(1-methyl-1H-pyrazol-5-yl)thieno[2,3-b]pyridin-2-yl)(4-morpholinyl)methanone] |
| 0.519 nM | Cn1cc2cc(-c3cc(-c4ccnn4C)c4cc(C(=O)N5CCSCC5)sc4n3)cnc2n1 [Compound B14, (6-(2-methyl-2H-pyrazolo[3,4-b]pyridin-5-yl)-4-(1-methyl-1H-pyrazol-5-yl)thieno[2,3-b]pyridin-2-yl)(4-thiomorpholinyl)methanone] |

Source: patent publication US20260315492A1, “5,6-FUSED BICYCLIC AMIDES AND COMPOSITIONS FOR USE AS 15-PROSTAGLANDIN DEHYDROGENASE MODULATORS” (AMGEN INC., priority 2023, published 2026)
